According to patent US20060051526A1, “Process for producing cellulose acylate film” (Fuji Photo Film Co., Ltd., priority 2002, published 2006):

Experiments:
Assay type in all cases: physicochemical
[1] = Solubility test of the additive alone in dichloromethane/methanol mixed solvent (visual, after 4 days); conditions: for Solubility S0 (solids weight concentration at the dissolution limit): CH2Cl2/CH3OH 87/13
Protocol: The solubility of the functional additives was measured as follows.
1. Solutions were prepared by adjusting each concentration in a 50 cc screw cap bottle.
2. Allowed to stand at room temperature for 4 days. Here, the results of the solubility changed between 1 day and 4 days in some cases, and evaluation of the solubility was carried out after 4 days as a time when equilibrium was reached.
3. Samples were prepared in the same manner at other temperatures (20° C., 35° C.), and the solubility after allowing to stand for 4 days was visually inspected.
Predetermined amounts of Example Compounds I-(51) and I-(2) were weighed into a mixed solvent of dichloromethane and methanol, and the solubility was measured by changing the mixing ratio of the organic solvents.
The solubility (solids weight concentration at the dissolution limit was calculated as (C1+C2)/2 when the concentration limit at which it could be dissolved was C1 and the concentration limit at which it could not be dissolved was C2) of the retardation control agent in a mixed solvent having an initial methylene chloride/methanol composition ratio of 87/13 was defined as S0, and the solubility of the retardation control agent when the solvent composition changed, during drying, to 74/26 where the methanol wt % was the maximum was defined as S1. The temperature at which the solubility was measured is denoted by the figure in brackets.

[2] = Measurement of micro heat of solution (multi-purpose calorimeter MPC-110); conditions: for Degree of stabilization: Table 15; for Heat of solution ΔH0: solvent alone, 26.0° C.
Protocol: (2 Measurement of Micro Heat of Solution)
The heat of solution (dissolution enthalpy ΔH) of functional additives was measured as follows, using a multi-purpose calorimeter (MPC-110) manufactured by Tokyo Rikou as a micro heat of solution measuring instrument.
1. Solvent liquids and concentrated solutions were prepared beforehand in 1 L bottles.
2. Preparation of ampoule tubes
(1) Additives (powdered solid) were ground by a mortar and the granules were made uniform.
(2) A required amount (252 mg) of the additive to be measured was weighed into an ampoule tube for measurement of the micro heat of solution.
(3) The neck of the ampoule tube was heated sufficiently by a gas burner so as to seal the ampoule tube.
3. 50 g of the prepared solvent liquid or the concentrated solution was weighed into a measuring vessel. This amount was selected as an amount sufficient to immerse the ampoule tube in the solvent liquid when set in the measuring instrument.
4. The ampoule tube was set in the measuring instrument, which was equipped with an ampoule sealing mechanism, the measuring vessel was hermetically sealed with the ampoule sealing mechanism after confirming that the ampoule tube was immersed in the solvent liquid, it was placed in a constant temperature bath (26.0° C.), and stirring was started.
5. After confirming that the measuring instrument placed in the constant temperature bath had reached equilibrium temperature (about 8 to 12 hours) the ampoule tube was broken so as to mix the additive with the solvent liquid or the concentrated solution.
6. The total amount of heat generated was recorded.
7. The Joule's heat generated was measured by applying a known voltage to the measurement system for an appropriate time, and the recorded chart area for each measurement cell was calibrated using a known amount of heat.
8. The heat of solution of the sample was calculated from the Joule's heat and the measured sample area.
Shown in Table 11 are the solvent composition (wt %) and the solids composition (parts by weight) of the mother liquor when measuring the heat of solution, the type of retardation control agent sealed in the ampoule tube (Example Compounds I-(51) or I-(2)), and the results of measurement of the heat of solution.
The identification symbols of elements constituting the system are as follows: a denotes triacetylcellulose/plasticizer, b denotes triacetylcellulose, and c denotes plasticizer. For example, 2-87a denotes that the retardation control agent is the Example Compound I-(2), the solvent composition (wt %) is dichloromethane/methanol=87/13, and the solids constituting the system are triacetylcellulose and the plasticizer.
The heat of solution ΔH0 denotes the heat of solution (heat absorption) generated when there is no solid in the system (before breaking the ampoule tube) and the retardation control agent is dissolved in a solvent alone. […] The solids concentration of the system when saturation starts is defined as the saturation heat of solution solids concentration (wt %).
In all cases, when the solids concentration of the system is increased, the heat of solution either remains unchanged from that at a solids concentration of 0 wt % (the saturation heat of solution solids concentration is 0) or decreases and becomes saturated. […] This degree of stabilization is expressed as ΔH0−ΔHs, which is the decrease in the heat of solution.

[3] = Solubility test of the additive alone in dichloromethane/methanol mixed solvent (visual, after 4 days)
[4] = 87/13, solids a: triacetylcellulose/plasticizer
[5] = 87/13, solids b: triacetylcellulose only
[6] = 87/13, solids c: plasticizer only
[7] = initial 87/13 vs 74/26, at any of 25° C., 20° C., 35° C.

## Cc1cccc(Nc2nc(Nc3cccc(C)c3)nc(Nc3cccc(C)c3)n2)c1 [Example Compound I-(51)]
[1]; 20° C., 87/13 vs 74/26
  Ratio S1/S0: 0.455
[1]; 20° C.
  Solubility S0 (solids weight concentration at the dissolution limit): 27.5 wt %
[1]; 25° C., 87/13 vs 74/26
  Ratio S1/S0: 0.467
[1]; 35° C., 87/13 vs 74/26
  Difference S0 − S1: 15 wt %
  Ratio S1/S0: 0.455
[1]; 35° C., CH2Cl2/CH3OH 74/26
  Solubility S1 (solids weight concentration at the dissolution limit): 12.5 wt %
[1]; 35° C.
  Solubility S0 (solids weight concentration at the dissolution limit): 27.5 wt %
[2]; 50/50, solids a
  Degree of stabilization (ΔH0 − ΔHs): 0 kcal/mol
  Saturation heat of solution solids concentration: 0 wt %
[2]; 50/50, solids a: triacetylcellulose/plasticizer
  Heat of solution ΔHs: 4.25 kcal/mol
[2]; 74/26, solids a
  Degree of stabilization (ΔH0 − ΔHs): 0 kcal/mol
  Saturation heat of solution solids concentration: 0 wt %
[2]; 74/26, solids a: triacetylcellulose/plasticizer
  Heat of solution ΔHs: 4.56 kcal/mol
[2]; [4]
  Degree of stabilization (ΔH0 − ΔHs): 0.5 kcal/mol
  Saturation heat of solution solids concentration: 5 wt %
[2]; 87/13, solids a: triacetylcellulose/plasticizer (TPP/BDP)
  Heat of solution ΔHs: 4.35 kcal/mol
[2]; [5]
  Degree of stabilization (ΔH0 − ΔHs): 0.6 kcal/mol
  Heat of solution ΔHs: 4.25 kcal/mol
  Saturation heat of solution solids concentration: 5 wt %
[2]; [6]
  Degree of stabilization (ΔH0 − ΔHs): 0 kcal/mol
  Heat of solution ΔHs: 4.85 kcal/mol
  Saturation heat of solution solids concentration: 0 wt %
[2]; 92/8, solids a
  Degree of stabilization (ΔH0 − ΔHs): 0.8 kcal/mol
  Saturation heat of solution solids concentration: 7 wt %
[2]; 92/8, solids a: triacetylcellulose/plasticizer
  Heat of solution ΔHs: 4.23 kcal/mol
[2]; 100/0, solids a
  Degree of stabilization (ΔH0 − ΔHs): 1.48 kcal/mol
  Saturation heat of solution solids concentration: 10 wt %
[2]; 100/0, solids a: triacetylcellulose/plasticizer
  Heat of solution ΔHs: 3.79 kcal/mol
[2]; dope Table 12, solvent composition 87/13
  Degree of stabilization: 0.50 kcal/mol
[2]; dope Table 13, solvent composition 92/8
  Degree of stabilization: 0.80 kcal/mol
[2]; dope Table 14, solvent composition 74/26
  Degree of stabilization: 0 kcal/mol
[2]; case c: only the plasticizer present in the system
  Stabilization by solids in the system (in words): not stabilized
[2]; dichloromethane/methanol 50/50 wt %
  Heat of solution ΔH0: 4.25 kcal/mol
[2]; dichloromethane/methanol 74/26 wt %
  Heat of solution ΔH0: 4.56 kcal/mol
[2]; dichloromethane/methanol 87/13 wt %
  Heat of solution ΔH0: 4.85 kcal/mol
[2]; dichloromethane/methanol 92/8 wt %
  Heat of solution ΔH0: 5.03 kcal/mol
[2]; dichloromethane/methanol 100/0 wt %
  Heat of solution ΔH0: 5.27 kcal/mol
[3]; 20° C., 87/13 vs 74/26
  Difference S0 − S1: 15 wt %
[3]; 20° C., 92/8 vs 91/9
  Difference S0 − S1: 0 wt %
  Ratio S1/S0: 1.000
[3]; 20° C., CH2Cl2/CH3OH 74/26
  Solubility S1 (solids weight concentration at the dissolution limit): 12.5 wt %
[3]; 20° C., CH2Cl2/CH3OH 91/9
  Solubility S1 (solids weight concentration at the dissolution limit): 27.5 wt %
[3]; 20° C., CH2Cl2/CH3OH 92/8
  Solubility S0 (solids weight concentration at the dissolution limit): 27.5 wt %
[3]; 25° C., 87/13 vs 74/26
  Difference S0 − S1: 20 wt %
[3]; 25° C., 92/8 vs 91/9
  Difference S0 − S1: 0 wt %
  Ratio S1/S0: 1.000
[3]; 25° C., CH2Cl2/CH3OH 74/26
  Solubility S1 (solids weight concentration at the dissolution limit): 17.5 wt %
[3]; 25° C., CH2Cl2/CH3OH 87/13
  Solubility S0 (solids weight concentration at the dissolution limit): 37.5 wt %
[3]; 25° C., CH2Cl2/CH3OH 91/9
  Solubility S1 (solids weight concentration at the dissolution limit): 37.5 wt %
[3]; 25° C., CH2Cl2/CH3OH 92/8
  Solubility S0 (solids weight concentration at the dissolution limit): 37.5 wt %
[3]; 35° C., 92/8 vs 91/9
  Difference S0 − S1: 0 wt %
  Ratio S1/S0: 1.000
[3]; 35° C., CH2Cl2/CH3OH 91/9
  Solubility S1 (solids weight concentration at the dissolution limit): 27.5 wt %
[3]; 35° C., CH2Cl2/CH3OH 92/8
  Solubility S0 (solids weight concentration at the dissolution limit): 27.5 wt %
[3]; [7]
  Difference in solubility S0−S1: ≥ 15 wt %
  Ratio S1/S0 of the solubility: less than 0.5
